As usually defined, the inhibition is the relative decrease from the control value, in per cent. A higher inhibition goes with a response far below the control. The % inhibition is the percentage by which the read-out fell short of the control. High values mean a response far below the control, low ones a response near the control.

Structures are written as SMILES. Counter-ions that a name gives are not always drawn.

The source of these data is EP1080070B1, “ANTIANGIOGENIC DRUG TO TREAT CANCER, ARTHRITIS AND RETINOPATHY” (ABBOTT LABORATORIES, priority 1998, dated 1999).

The test system of one experiment is Human Microvascular Endothelial Cells (HMVEC). Description: Endothelial cell migration assay (modified Boyden chamber, bFGF-stimulated). Type of experiment: cell-based. Particulars: Homo sapiens, HMVEC; 200 nM test compound; bFGF in upper chamber, 4 hours at 37 °C; percent inhibition of migration compared to a positive control. As for the experimental part:
The endothelial cell migration assay was performed essentially as described by Polverini, P.J. et al., Methods Enzymol, 198: 440-450 (1991). Briefly, Human Microvascular Endothelial Cells (HMVEC) were starved overnight in DMEM containing 0.1% bovine serum albumin (BSA). Cells were then harvested with trypsin and resuspended in DMEM with 0.1% BSA at a concentration of 1.5 x 10^6 cells/mL. Cells were added to the bottom of a 48-well modified Boyden chamber (Nucleopore Corporation, Cabin John, MD). The chamber was assembled and inverted, and cells were allowed to attach for 2 hours at 37 °C to polycarbonate chemotaxis membranes (5 µm pore size) that had been soaked in 0.1% gelatin overnight and dried. The chamber was then reinverted and basic fibroblast growth factor (bFGF) and test substances were added to the wells of the upper chamber (to a total volume of 50 µL); the apparatus was then incubated for 4 hours at 37 °C. Membranes were recovered, fixed and stained (DiffQuick, Fisher Scientific, Pittsburgh, PA) and the number of cells that had migrated to the upper chamber per 10 high power fields were counted. Background migration to DMEM +0.1% BSA was subtracted and the data reported as the number of cells migrated per 10 high power fields (400X) or when results from multiple experiments were combined, as the percent inhibition of migration compared to a positive control.
`CC(=O)N[C@@H](CCCCN)C(=O)Nc1ccc(C(=O)N[C@@H](CC(=O)O)C(N)=O)c(-c2ccc(O)cc2)c1` [Example 28, (3S)-3-(((5-(((2S)-2-(acetylamino)-6-aminohexanoyl)amino)-4'-hydroxy(1,1'-biphenyl)-2-yl)carbonyl)amino)-4-amino-4-oxobutanoic acid] showed an inhibition at 0.2 µM of 59%. Consider `CC(C)(C)OC(=O)N[C@@H](CCCCN)C(=O)Nc1ccc(C(=O)O)c(-c2cccc(O)c2)c1` [Example 31, 5-(((2S)-6-amino-2-((tert-butoxycarbonyl)amino)hexanoyl)amino)-3'-hydroxy(1,1'-biphenyl)-2-carboxylic acid], for which the inhibition at 0.2 µM was > 95%. `CCOC(=O)Cc1ccc(NC(=O)[C@H](CCCCN)NC(=O)OC(C)(C)C)cc1` [Example 25, (S)-ethyl 4-[[6-amino-2-[[(1,1-dimethylethoxy)carbonyl]amino]-1-oxohexyl]amino]benzeneacetate monohydrochloride] yielded an inhibition at 0.2 µM of 38%. The same measure, in the same setting: the result for `CC(=O)N[C@@H](CCCCN)C(=O)Nc1ccc(C(=O)O)c(-c2cccc(O)c2)c1` [Example 15, (S)-4-[[2-(acetylamino)-6-amino-1-oxohexyl)amino]-2-(3-hydroxyphenyl)benzoic acid] reads 64%. Same read-out and setting: the result for `CC(=O)NC(CCCCN)C(=O)Nc1ccc(C(=O)N[C@@H](CC(=O)O)C(N)=O)c(-c2cccc(O)c2)c1` (stereo partly drawn) [Example 16, (S)-N-[4-[[2-(acetylamino)-6-amino-1-oxohexyl]amino]-2-(3-hydroxyphenyl)benzoyl]-L-α-asparagine] reads 86%. On the same count and under the same terms, for `COC(=O)c1ccc(NC(=O)[C@@H](CCCCN)NC(=O)OC(C)(C)C)cc1-c1cccc(O)c1` [Example 9, (R)-methyl 4-[[6-amino-2-[[(1,1-dimethylethoxy)carbonyl]amino]-1-oxohexyl]amino]-2-(3-hydroxyphenyl)benzoate] the value was > 95%. For the compound `CC(C)(C)OC(=O)C[C@H](NC(=O)Cc1ccc(N)cc1)C(=O)OC(C)(C)C` [Example 19, N-[(4-aminophenyl)acetyl]-L-aspartic acid bis(1,1-dimethylethyl) ester], at 0.2 µM the inhibition was 32%. Same read-out and setting: for `COC(=O)c1ccc(NC(=O)[C@H](CCCCN)NC(C)=O)cc1-c1cccc(O)c1` [Example 14, (S)-methyl 4-[[2-(acetylamino)-6-amino-1-oxohexyl]amino]-2-(3-hydroxyphenyl)benzoate] the value was 60%; for `COC(=O)c1ccc(NC(=O)[C@H](CCCCN)NC(=O)OC(C)(C)C)cc1-c1ccc(O)cc1` [Example 27, methyl 5-(((2S)-6-amino-2-((tert-butoxycarbonyl)amino)hexanoyl)amino)-4'-hydroxy(1,1'-biphenyl)-2-carboxylate], 28%.

Still in this experiment, the particulars now being: bFGF in upper chamber, 4 hours at 37 °C, percent inhibition of migration compared to a positive control.
With `NC(CCCCNC(=O)OCc1ccccc1)C(=O)Nc1ccc(CC(=O)N[C@@H](CC(=O)O)C(=O)O)cc1` (some centres unmarked) [Example 20], the “% inhibition at 200 nM test compound” value was 34%. Still for that read-out and setting: for `COC(=O)c1ccc(NC(=O)[C@H](CCCCNC(=O)OCc2ccccc2)NC(C)=O)cc1-c1cccc(OCc2ccccc2)c1` [Example 12, (S)-methyl 4-[[2-(acetylamino)-6-[[(phenylmethoxy)carbonyl]amino]-1-oxohexyl]amino]2-[(3-(phenylmethoxy)phenyl benzoate] the value was 29%; for `CC(=O)NC(CCCCN)C(=O)Nc1ccc(C(=O)N[C@@H](CC(N)=O)C(=O)O)c(-c2ccccc2)c1` (some centres unmarked) [Example 17], >95%; for `CC(=O)NC(CCCCN)C(=O)Nc1ccc(C(=O)N[C@@H](CC(N)=O)C(=O)O)cc1` (stereo partly drawn) [Example 18, (S)-N-[4-[[2-(acelylainino)-6-amino-1-oxohexyl]amino]benzoyl]-L-α-asparagine], 90%. The same measure, in the same setting: for `COC(=O)c1ccc(NC(=O)[C@@H](CCCCN)NC(=O)OC(C)(C)C)cc1-c1ccccc1O` [Example 10, (R)-methyl 4-[[6-amino-2-[[(1,1-dimethylethoxy)carbonyl]amino]-1-oxohexyl]amino]-2-(2-hydroxypheal)benzoate] the value was 80%.
